One compound from patent US20110224300A1, “USE OF POTASSIUM 2-(a- HYDROXYPENTYL) BENZOATE IN THE MANUFACTURE OF MEDICAMENTS FOR PREVENTING AND/OR TREATING SENILE [sequence]” (Institute of Mataria Medica, Chinese Academy of Me, priority 2008, published 2011) can be followed below.

In one experiment the test system is ChAT. Put plainly: ChAT activity of brain tissues from Aβ(25-35)-induced dementia rats. It is filed as in vivo, Male Wistar rats. The conditions noted are these: Aβ(25-35) rats, 2 weeks. On the procedure:
(§1) The biochemical assays were conducted later (in 24 h) after behavioral testing. Eight rats in each group were anesthetized with ether and sacrificed. The brains were quickly removed and cleaned with ice-cold saline. Then the parietal cortex and hippocampus were isolated. For biochemical analysis, the tissues were weighed and homogenized in ice-cold saline with the proportion of 1:9 (w/v). Homogenization (IKA, Germany) was carried out for 2 min in an ice bath. After the homogenates were centrifuged at 2,000×g for 10 min at 4° C. (Sigma, Germany), the supernatant was used for analytical procedures. The levels of choline acetyltransferase (ChAT) SOD, and MDA activities were determined with commercial colorimetric assay kits (Nanjing Jiancheng Bioengineering Institute, China). The content of protein in the supernatant was determined by Bradford method using BSA as standard.
Rats were divided into four experimental groups randomly (10 rats/each group): one sham-operated group, one vehicle control group, and two dl-PHPB-treated groups (39, and 129 mg/kg). At 1 days after operation, drugs and vehicle were administered orally to rats for 14 days (one time/each day). The spatial learning and memory abilities of rats were detected by Morris water maze in the 9-12 days after operation. The testing of Morris water was commenced at 40 min after drugs treated. […]

The next experiment deals with AChE. Kind of experiment: AChE activity of hippocampus from SAMP8 mice. The following applies: treatment up to 35 days, tendency only. It is filed as in vivo. The method, then:
(§2) SAMP8 were divided into three experimental groups randomly: one vehicle control group, and two dl-PHPB-treated groups (50, and 160 mg/kg). Drugs and vehicle were administered orally to SAMP8 mice for 35 days (one time/each day). The spatial learning and memory abilities of SAMP8 mice were detected by Morris water maze and DTT-2 jumping apparatus in 31-35 days. The testing was commenced at 40 min after drugs treated. The biochemical and pathology assays conducted later (in 24 h) after behavioral testing.
(§3) The methods as described previously.

Another experiment deals with GFAP. Put plainly: GFAP immunohistochemistry, activated astrocytes of 2-VO rats. The experiment is classed as in vivo, rat. On the procedure: The method for tissue fixation was described above. Serial coronal sections (40 μm) of the brains were cut through the dorsal hippocampus on a freezing microtome and collected in 6-well plates containing 0.01 M PBS. The detection of GFAP and BDNF immunoreactivity was performed using a conventional avidin-biotin-immunoperoxidease technique.
For quantitative analysis, one from every five samples in a continuous series of hippocampal or cortical tissue sections was taken, and was processed immunohistochemically. Thus, three slides were taken from each rat, and were read under an objective (×1.6) microscope. The total area of positively stained neurons was counted with Image-pro Plus 5.0 software.
Cerebral damage caused by hypoperfusion may be the basis for spatial learning and memory impairment, including earliest white matter damage, accompanied by an increase of astrocytes and microglia activation. Glial fibrillary acidic protein (GFAP) immunohistochemical staining can be used to label the activated astrocytes. 2-3 photos were taken from each selected slices in the same regions. The number of the GFAP positive astrocytes was calculated as the average value of the region. Four anatomical regions were selected to observe: the cortex, hippocampus, corpus callosum and optic tract.

The test system of experiment [1] is cortex and hippocampus neurons of 2-VO rats. Put plainly: HE staining, neuronal morphology in 2-VO rats. The experiment is classed as in vivo, rat. The following applies: 21 days. The method, then: Four rats in each group were anesthetized with sodium pentobarbital (100 mg/kg, intraperitoneal injection), and perfused transcardially with cold saline, followed by 300 ml of 4% paraformaldehyde in 0.01 M phosphate buffer (pH 7.4). After these procedures, the brains were removed and stored in the 0.01 M phosphate buffer (pH 7.4) with 4% paraformaldehyde and 30% sucrose at 4° C. until fully equilibrated. Then they were postfixed at 4° C., dehydrated and embedded in paraffin blocks. Coronal sections of 8 μm were stained with hematoxylin-eosin and Klüver-Barrera.
HE staining in the cytoplasm and nucleus in different colors, you can clearly see the general shape of the cells. […] Above that, dl-PHPB could protect and care the damage of cortex and hippocampus neurons caused by chronic cerebral hypoperfusion.

For experiment [2], the system named is Aβ(25-35)-induced dementia rats. Kind of experiment: Morris water maze in Aβ(25-35)-induced dementia rats. The conditions noted are these: Aβ(25-35) rats; for percentage of time in the target quadrant (probe test): vehicle 21.6±1.6%. The experiment is classed as in vivo, Male Wistar rats. The method, then:
Subjects were tested in a Morris water maze. This test is based on a standardized assessment of spatial learning ability. The water maze apparatus consisted of a circular, stainless pool (120 cm in diameter, 60 cm in height). It was placed in a dimly lit, sound-proof test room. Multiple distant cues around the room (window, cabinets, furniture) were kept in the same location throughout the experiments. The water was filled to a depth of 40 cm at 25±1° C. and was made opaque by adding milk powder to prevent visualization of the platform. A transparent platform (10 cm diameter) was put 1.5 cm below the surface of the water. The tank was divided into four quadrants with the platform in a fixed position in one quadrant. The subjects were placed into the maze facing the pool wall and were allowed two trials per day, 60 s per trial, to find the hidden platform. If the subject found the platform within the 60 s, it was given a 10-s rest period on the platform between trials. If the pedestal was not located within the time allotted, the subject was placed on to the platform and allowed 10 s until the next trial. The escape latency (time to reach the platform) was used to assess acquisition of the water maze task. Sessions were repeated for five consecutive days. On the sixth day, the platform was removed and the rat was allowed to search for the platform for 60 s (probe test). The time in the platform quadrant and latency time to cross platform location were recorded to measure the spatial learning ability without the influence of chance encounters with the platform. The Morris water maze sessions were recorded with a video camera for offline analysis.
Aβ(25-35)-induced dementia model in 10 months of Male Wistar rats with 600 g B.W. was created by slow injection of 15 nmol (volume of 50) aggregation of Aβ (25-35). Sham-operation group was only injected with PBS (volume of 50). After operation, the animals were injected penicillin 200 000 units for 4 days by intraperitoneal injection.
Rats were divided into four experimental groups randomly (10 rats/each group): one sham-operated group, one vehicle control group, and two dl-PHPB-treated groups (39, and 129 mg/kg). At 1 days after operation, drugs and vehicle were administered orally to rats for 14 days (one time/each day). The spatial learning and memory abilities of rats were detected by Morris water maze in the 9-12 days after operation. The testing of Morris water was commenced at 40 min after drugs treated. The biochemical and pathology assays conducted later (in 24 h) after behavioral testing.
The navigation test was performed in 9-12 days after icy Aβ (25-35) by the same method as the before. On the thirteenth day, the platform was removed and the rat was allowed to search for the platform for 30 s (probe test). The time in the platform quadrant and latency time to cross platform location were recorded to measure the spatial learning ability without the influence of chance encounters with the platform.

The next experiment has as its system MDA. Put plainly: MDA level of brain tissues from SAMP8 mice. The experiment is classed as in vivo. The following applies: 35 days; for MDA level in the hippocampus / decrease of hippocampus MDA level compared with SAMP8: without statistical significance. The method, then:
as §1, §2, §3

As for `CCCCC(O)c1ccccc1C(=O)[O-].[K+]` (racemic) [dl-PHPB, Potassium 2-(1-Hydroxypentyl)-benzoate], the “cortical ChAT activity” value is on record as “significantly increased the ChAT activity” in the experiment on ChAT (39 mg/kg, P<0.05) and “strong trend” in the experiment on ChAT (129 mg/kg). For the same compound, in the experiment with AChE, the “AChE activity in the hippocampus” value is “might decrease AChE activity”. The “GFAP-positive cells in the hippocampus” value was “significantly less than in the vehicle group” with GFAP (administration of 21 days, P<0.05 or P<0.01); “most significant effect” in the experiment on GFAP (dl-PHPB 39 mg/kg, 21 days, P<0.01); “most significant effect” in the experiment on GFAP (dl-PHPB 129 mg/kg, 21 days, P<0.01). The “GFAP-positive cells in the cortex” value with GFAP (administration of 21 days, in particular dl-PHPB 39 mg/kg (P<0.01)) is “significantly less than in the vehicle group”. Moreover, the “GFAP-positive cells in the optic tract” value is reported as “significantly less than the vehicle group” in the experiment with GFAP (dl-PHPB 39 mg/kg, 21 days) and “significantly less than the vehicle group” in the experiment on GFAP (dl-PHPB 129 mg/kg, 21 days). For the same compound, in the experiment on GFAP (dl-PHPB 39 mg/kg, P<0.05), the “GFAP positive cells in the corpus callosum” value is given as “significantly decreased level of GFAP positive cells”. The “neuronal morphology, HE staining” value is “only minor improve the abnormal shape of cortical neurons” in experiment [1] (dl-PHPB 13 mg/kg); “significantly improve the cortex, hippocampus area CA1 and CA3 neurons form” in experiment [1] (dl-PHPB 39 mg/kg); “improve the cortex and hippocampus CA1 area neuronal morphologic abnormalities” in experiment [1] (dl-PHPB 129 mg/kg). Besides, the escape latency result in experiment [2] (39 mg/kg orally, 2nd day of training, P<0.05) is given as “shorter than sham group”; in experiment [2] (39 mg/kg orally, 3rd to 4th days) it was “shorter than vehicle group”; in experiment [2] (129 mg/kg orally, 3rd to 4th days, P<0.05 or P<0.01) it was “significantly shorter than vehicle group”. Further, the “percentage of time in the target quadrant (probe test)” value is 24.6±3.0% in experiment [2] (39 mg/kg orally, trend only) and 30.2±2.5% in experiment [2] (129 mg/kg orally, sham 32.8±4.0%, p<0.05 vs vehicle). Moreover, the “time of the first cross platform (probe test)” value in experiment [2] (dose not specified) is “shorten trend”. Also, the entries for the “MDA level in the hippocampus” value with MDA (50 mg/kg oral) and in the experiment with MDA (160 mg/kg oral) were 1.23±0.05 nmol/mg protein and 1.26±0.09 nmol/mg protein, respectively. Moreover, the “decrease of hippocampus MDA level compared with SAMP8” value amounted to 35.3% in the experiment with MDA (50 mg/kg oral) and 33.7% in the experiment with MDA (160 mg/kg oral). Also, in the experiment with MDA (cortex, data not shown), the “MDA level in the cortex” value was “did not significantly improved in MDA level”.
